Results as given in patent US8148371B2, “Adenine compound and use thereof” (Dainippon Sumitomo Pharma Co., Ltd., priority 2002, dated 2012).
Like-named read-outs stand apart in the source and are kept apart here. Marks after values point to notes of the source that are not given here.

Experiments:
cells of mouse spleen = assay: cells; type: cell-based, C3H/HeJ mouse; conditions: for minimal effective concentration: Mus musculus, 24 h, read-out: Minimum effective concentration (interferon inducing activity)
cells of rat spleen = assay: cells; type: cell-based, SD rat; conditions: 24 h, read-out: Minimum effective concentration (interferon inducing activity)
plasma esterase = conditions: rat plasma, 37° C., 15 minutes
Description: The compound of the present invention is added to the serum solution, and the mixture is incubated at 37±0.5° C. for 5 minutes to 2 hours. By quantitatively analyzing at the definite interval the amount of the compound of the present invention remaining in the serum solution with HPLC (high performance liquid chromatography), etc., the constant of quenching velocity calculated and the half life is calculated.
The serum herein means the supernatant fraction obtained by excluding hemocytes and blood coagulation factor from blood by centrifugation, etc. The serum diluted with buffer, etc. can be used.
The metabolic stability of the test compound was presented by the residual amount (%) per the concentration of pre-metabolization.

[1] = Metabolic stability on liver S9 of rat; conditions: 37° C.
Description: The compound of the present invention is added to liver S9 solution, and the mixture is incubated at 37±0.5° C. for 5 minutes to 2 hours. By quantitatively analyzing at the definite interval the amount of the compound of the present invention remaining in the liver S9 solution with HPLC (high performance liquid chromatography), etc., the constant of quenching velocity is calculated and the half life is calculated.
The reaction on river S9 of a rat was carried out on a 96-well plate by using a robot for screening by Tecan Company. S9 solution was prepared by adding to 10 ml of liver S9 of a rat, 20 ml of 250 mM Kpi (pH 7.4) and 20 ml of deionized water. Cofactor solution was prepared by dissolving NADPH (220 mg) in deionized water (40.5 ml) to give finally a 6 mM solution. IS (Internal Standard) solution was prepared by adding 300 μL of IS solution (1 mM DMSO solution) to 30 ml of acetonitrile solution (100 times dilution). The test compound (1 μM DMSO solution) was dissolved in an incubator at 37° C., 35 μL of it was poured into each well of a 96-well plate (24 samples/plate and then, plates (a sample plate, a 96 well-plate for dilution, deep well plates for reaction and recovering, a plate for extraction of the solid phase) and the test samples (S9 solution, Cofactor solution, IS (Internal Standard) solution, Stop solution, acetonitrile for elution) were set to the specified position in the booth of the robot. The reaction started (the concentration of the test compound was 1 μM) and the mixture was incubated at 37° C. under stirring. The solid phase was extracted and at the same time the internal standard for analysis was added. To the recovered sample (200 μL/well) was added 50 μL of acetonitrile per each well and to 2 plates of FALCON Deep well were poured 100 μL of the solution per well. By subjecting to the LC/MS analysis, the chromatogram of the test sample and the internal standard were described and the peak area was calculated. And then, the stability (residual rate after reaction) was calculated by the internal standard method.

[2] = test system: type 2 herpes virus (HSV-2); assay: Anti HSV activity in mouse infected with HSV-2 in its vagina; type: in vivo, BALB/c female mouse; conditions: 9 days after virus-infection
Description: Compound A was spread to a vagina of a female mouse (BALB/c) to which previously Depo-Provera was administered, and on next day, HSV-2 was infected to the vagina. Nine days later, the rate of survival or death of mice was observed and compared.
On the back of a BALB/c female mouse (6 weeks old: Nippon SLC) 3 mg of Depo-Provera/mouse (Registered Trade Mark) was dermally administered and the mice were fed for 6 days. By doing this the sexual cycle was tuned and the sensitivity between mice to herpes virus was balanced. The slime of mouse vagina was removed by a cotton swab for baby, and the ointment (20 mg) containing 0.5% of compound of Example 20 or the ointment (10 mg) containing 5% of compound of Example 20 was spread to the vagina (corresponding 0.1 mg and 0.5 mg per mouse of the compound of Example). As a control, the placebo ointment not containing the compound was spread as well. As the ointment, the base consisting of 80% Vaseline and 20% liquid paraffin were used. On the next day, the slime of mouse vagina was removed by a cotton swab for baby and then, 2×10^4 pfu type 2 herpes virus (HSV-2)(10 μl/mouse) was administered to the vagina by pipette. After infection the death or survival of the mice was observed.

[3] = rat liver S9, test compound 1 μM
[4] = rat liver S9, test compound 10 μM (*)

Q: For `Nc1nc(CC(=O)O)nc2c1nc(O)n2Cc1ccccc1` [Comparative example 8, 9-Benzyl-2-carboxymethyl-8-hydroxyadenine, reference compound], which minimal effective concentration (cells of mouse spleen) is on record?
A: 10 µM

Q: And the minimal effective concentration (cells of rat spleen)?
A: 3 µM

Q: Which results are given for `CCCCOc1nc(N)c2nc(O)n(Cc3ccc(N4CCC(C(=O)OCC)CC4)nc3)c2n1` [Example 24, 2-Butoxy-8-hydroxy-9-{6-(4-ethoxycarbonyl-1-piperidyl)-3-pyridylmethyl}adenine]?
A: minimal effective concentration (cells of mouse spleen): < 0.001 µM; minimal effective concentration (cells of rat spleen): 0.0003 µM; Residual rate (plasma esterase; test compound 10 μM): 7%

Q: Which minimal effective concentration (cells of mouse spleen) does the source give for `CCCCOc1nc(N)c2nc(O)n(Cc3ccc(CC(=O)O)cc3)c2n1` [Comparative example 6, 2-Butoxy-8-hydroxy-9-(4-carboxymethylbenzyl)adenine, reference compound] here?
A: 0.03 µM

Q: And the minimal effective concentration (cells of rat spleen)?
A: 0.01 µM

Q: For `CCCCOc1nc(N)c2nc(O)n(Cc3ccc(N4CCCC(C(=O)OCC)C4)nc3)c2n1` (stereo not shown) [Example 25, 2-Butoxy-8-hydroxy-9-{6-(3-ethoxycarbonyl-1-piperidyl)-3-pyridylmethyl}adenine], which minimal effective concentration (cells of mouse spleen) is on record?
A: 0.003 µM

Q: What about the Residual rate (plasma esterase; test compound 10 μM) of the same molecule?
A: 16%

Q: What does the source list for `CCCCOc1nc(N)c2nc(O)n(Cc3cccc(C(=O)OCCO)c3)c2n1` [Example 6, 2-Butoxy-8-hydroxy-9-{3-(2-hydroxyethoxycarbonyl)benzyl}adenine]?
A: minimal effective concentration (cells of mouse spleen): < 0.001 µM; Residual rate (plasma esterase; test compound 10 μM): 14%

Q: For `CCCCOc1nc(N)c2[nH]c(=O)n(Cc3cccc(C(=O)OC)c3)c2n1` [Example 1, 2-Butoxy-8-hydroxy-9-(3-methoxycarbonylbenzyl)adenine], which minimal effective concentration (cells of mouse spleen) is on record?
A: < 0.001 µM

Q: What about the minimal effective concentration (cells of rat spleen) of the same molecule?
A: 0.0003 µM

Q: What about the Residual rate (plasma esterase; test compound 10 μM) of the same molecule?
A: 32%

Q: What about the Residual rate [1, 3] of the same molecule?
A: 7%

Q: Which minimal effective concentration (cells of mouse spleen) does the source give for `CCCCOc1nc(N)c2nc(O)n(Cc3ccc(CC(=O)OC(C)C)cc3)c2n1` [Example 21, 2-Butoxy-8-hydroxy-9-(4-isopropoxycarbonylmethylbenzyl)adenine] here?
A: 0.003 µM

Q: What about the minimal effective concentration (cells of rat spleen) of the same molecule?
A: 0.001 µM

Q: What about the Residual rate (plasma esterase; test compound 1 μM (*)) of the same molecule?
A: 0* %

Q: What about the Residual rate [1, 3] of the same molecule?
A: 26%

Q: For `CCCCOc1nc(N)c2nc(O)n(Cc3cccc(C(=O)OCCN(C)C)c3)c2n1` [Example 7, 2-Butoxy-8-hydroxy-9-{3-(2-dimethylaminoethoxycarbonyl)benzyl}adenine], which minimal effective concentration (cells of mouse spleen) is on record?
A: < 0.001 µM

Q: And the Residual rate (plasma esterase; test compound 10 μM)?
A: 1%

Q: For `COC(=O)OCCOc1nc(N)c2nc(O)n(Cc3ccc(C)nc3)c2n1` [Example 38, 2-{2-(Methoxycarbonyloxy)ethoxy}-8-hydroxy-9-{(6-methyl-3-pyridyl)methyl}adenine], which minimal effective concentration (cells of mouse spleen) is on record?
A: 0.01 µM

Q: And the Residual rate (plasma esterase; test compound 10 μM)?
A: 2%

Q: What does the source list for `COC(=O)CSc1nc(N)c2nc(O)n(Cc3ccccc3)c2n1` [Example 40, 9-Benzyl-8-hydroxy-2-(methoxycarbonylmethyl)thioadenine]?
A: minimal effective concentration (cells of mouse spleen): 0.01 µM; minimal effective concentration (cells of rat spleen): 0.01 µM; Residual rate (plasma esterase; test compound 10 μM): 0%

Q: Which minimal effective concentration (cells of mouse spleen) does the source give for `CCCCOc1nc(N)c2nc(O)n(Cc3cccc(CC(=O)O)c3)c2n1` [Comparative example 5, 2-Butoxy-8-hydroxy-9-(3-carboxymethylbenzyl)adenine, reference compound] here?
A: 0.1 µM

Q: And the minimal effective concentration (cells of rat spleen)?
A: 0.01 µM

Q: With `CCOC(=O)C(C)Sc1nc(N)c2nc(O)n(Cc3ccccc3)c2n1` (stereo not shown) [Example 53, 9-Benzyl-8-hydroxy-2-(1-ethoxycarbonylethyl)thioadenine] as the molecule, how does the minimal effective concentration (cells of mouse spleen) read?
A: 0.1 µM

Q: What about the Residual rate (plasma esterase; test compound 10 μM) of the same molecule?
A: 0%

Q: What about the Residual rate [1, 3] of the same molecule?
A: 2%

Q: For `Nc1nc(SCC(=O)OCC(F)(F)F)nc2c1nc(O)n2Cc1ccccc1` [Example 48, 9-Benzyl-2-(2,2,2-trifluoroethoxycarbonylmetyl)thio-8-hydroxyadenine], which “Minimum effective concentration (interferon inducing activity)” value (cells of mouse spleen) is on record?
A: 0.3 µM

Q: And the Residual rate (plasma esterase; test compound 10 μM)?
A: 0%

Q: What about the Residual rate [1, 3] of the same molecule?
A: 0%

Q: For `Nc1nc(SCCC(=O)O)nc2c1nc(O)n2Cc1ccccc1` [Comparative example 13, 9-Benzyl-8-hydroxy-2-(2-calboxylethyl)thioadenine, reference compound], which minimal effective concentration (cells of mouse spleen) is on record?
A: 10 µM

Q: What about the minimal effective concentration (cells of rat spleen) of the same molecule?
A: 0.3 µM

Q: Which results are given for `COC(=O)Cc1nc(N)c2nc(O)n(Cc3ccccc3)c2n1` [Example 29, 9-Benzyl-8-hydroxy-2-methoxycarbonylmethyladenine]?
A: minimal effective concentration (cells of mouse spleen): 0.01 µM; minimal effective concentration (cells of rat spleen): 0.01 µM; Residual rate (plasma esterase; test compound 10 μM): 0%

Q: Which minimal effective concentration (cells of mouse spleen) does the source give for `COC(=O)OCCNc1nc(N)c2nc(O)n(Cc3ccc(C)nc3)c2n1` [Example 34, 8-Hydroxy-2-(2-methoxycarbonyloxyethylamino)-9-{(6-methyl-3-pyridyl)methyl}adenine] here?
A: 0.1 µM

Q: And the Residual rate (plasma esterase; test compound 10 μM)?
A: 11%

Q: What about the Residual rate [1, 4] of the same molecule?
A: 1* %

Q: Which results are given for `Nc1nc(SCC(=O)O)nc2c1nc(O)n2Cc1ccccc1` [Comparative example 12, 9-Benzyl-8-hydroxy-2-(calboxylmethyl)thioadenine, reference compound]?
A: minimal effective concentration (cells of mouse spleen): 10 µM; minimal effective concentration (cells of rat spleen): 0.3 µM

Q: With `CCOC(=O)Cc1nc(N)c2nc(O)n(Cc3ccccc3)c2n1` [Example 30, 9-Benzyl-2-ethoxycarbonylmethyl-8-hydroxyadenine] as the molecule, how does the minimal effective concentration (cells of mouse spleen) read?
A: 0.01 µM

Q: And the minimal effective concentration (cells of rat spleen)?
A: 0.01 µM

Q: What about the Residual rate (plasma esterase; test compound 10 μM) of the same molecule?
A: 0%

Q: What about the Residual rate [1, 3] of the same molecule?
A: 4%

Q: What does the source list for `CCCCOc1nc(N)c2nc(O)n(Cc3ccc(CC(=O)OC)cc3)c2n1` [Example 20, 2-Butoxy-8-hydroxy-9-(4-methoxycarbonylmethylbenzyl)adenine]?
A: minimal effective concentration (cells of mouse spleen): 0.003 µM; minimal effective concentration (cells of rat spleen): 0.0001 µM; survived rate ([2]; 5% ointment (0.5 mg per mouse) spread to vagina): 100%; survived rate comparing with a control group ([2]; ointments containing 0.5% and 5%): clearly higher survived rate; Residual rate (plasma esterase; test compound 10 μM): 0%; Residual rate [1, 3]: 0%

Q: With `CCCCOc1nc(N)c2nc(O)n(Cc3ccc(C(=O)OC(C)C)o3)c2n1` [Example 16, 2-Butoxy-8-hydroxy-9-(5-isopropoxycarbonylfurfuryl)adenine] as the molecule, how does the minimal effective concentration (cells of mouse spleen) read?
A: 0.003 µM

Q: What about the Residual rate (plasma esterase; test compound 10 μM) of the same molecule?
A: 0%

Q: What about the Residual rate [1, 3] of the same molecule?
A: 0%

Q: With `COC(=O)CNc1nc(N)c2nc(O)n(Cc3ccc(C)nc3)c2n1` [Example 32, 8-Hydroxy-2-methoxycarbonylmethylamino-9-{(6-methyl-3-pyridyl)methyl}adenine] as the molecule, how does the minimal effective concentration (cells of mouse spleen) read?
A: 0.01 µM

Q: What about the Residual rate (plasma esterase; test compound 10 μM) of the same molecule?
A: 0%

Q: Which minimal effective concentration (cells of mouse spleen) does the source give for `CC(=O)OCCNc1nc(N)c2nc(O)n(Cc3ccc(C)nc3)c2n1` [Example 33, 2-(2-Acetoxyethylamino)-8-hydroxy-9-{(6-methyl-3-pyridyl)methyl}adenine] here?
A: 0.1 µM

Q: And the Residual rate [1, 4]?
A: 2* %

Q: What does the source list for `Nc1nc(SC2CCOC2=O)nc2c1nc(O)n2Cc1ccccc1` (stereo not shown) [Example 59, 9-Benzyl-2-(2-butyrolactino)thio-8-hydroxyadenine]?
A: Minimum effective concentration (interferon inducing activity) (cells of mouse spleen): 0.1 µM; Residual rate (plasma esterase; test compound 10 μM): 0%; Residual rate [1, 3]: 7%

Q: Which results are given for `CCCCOc1nc(N)c2nc(O)n(Cc3ccc(C(=O)O)o3)c2n1` [Comparative example 3, 2-Butoxy-8-hydroxy-9-(5-carboxyfurfuryl)adenine, reference compound]?
A: minimal effective concentration (cells of mouse spleen): 0.1 µM; minimal effective concentration (cells of rat spleen): 0.01 µM

Q: For `COC(=O)CCSc1nc(N)c2nc(O)n(Cc3ccccc3)c2n1` [Example 54, 9-Benzyl-8-hydroxy-2-(2-methoxycarbonylethyl)thioadenine], which minimal effective concentration (cells of mouse spleen) is on record?
A: 0.1 µM

Q: What about the minimal effective concentration (cells of rat spleen) of the same molecule?
A: 0.01 µM

Q: And the Residual rate (plasma esterase; test compound 10 μM)?
A: 0%

Q: Which results are given for `CCOC(=O)CC(=O)CSc1nc(N)c2nc(O)n(Cc3ccccc3)c2n1` [Example 58, 9-Benzyl-2-(ethoxycarbonylmethylcarbonylmethyl)thio-8-hydroxyadenine]?
A: minimal effective concentration (cells of mouse spleen): 0.1 µM; Residual rate (plasma esterase; test compound 10 μM): 0%

Q: For `Nc1nc(SCC(=O)N2CCCCC2)nc2c1nc(O)n2Cc1ccccc1` [Example 51, 9-Benzyl-8-hydroxy-2-(1-piperidinocarbonylmethyl)thioadenine], which minimal effective concentration (cells of mouse spleen) is on record?
A: 0.1 µM

Q: What about the Residual rate [1, 3] of the same molecule?
A: 0%

Q: With `CCCCOc1nc(N)c2nc(O)n(Cc3cccc(C(=O)O)c3)c2n1` [Comparative example 1, 2-Butoxy-8-hydroxy-9-(3-carboxybenzyl)adenine, reference compound] as the molecule, how does the minimal effective concentration (cells of mouse spleen) read?
A: 0.003 µM

Q: What about the minimal effective concentration (cells of rat spleen) of the same molecule?
A: 0.01 µM

Q: Which results are given for `CCNC(=O)CSc1nc(N)c2nc(O)n(Cc3ccccc3)c2n1` [Example 50, 9-Benzyl-2-(ethylcarbamoylmethyl)thio-8-hydroxyadenine]?
A: minimal effective concentration (cells of mouse spleen): 0.1 µM; Residual rate [1, 3]: 7%

Q: Which results are given for `CCCCOc1nc(N)c2nc(O)n(Cc3cccc(CC(=O)OC)c3)c2n1` [Example 19, 2-Butoxy-8-hydroxy-9-(3-methoxycarbonylmethylbenzyl)adenine]?
A: minimal effective concentration (cells of mouse spleen): < 0.001 µM; minimal effective concentration (cells of rat spleen): 0.0003 µM
